In ChEMBL document CHEMBL4190187, “Discovery of pyrazolopyrimidine derivatives as novel inhibitors of ataxia telangiectasia and rad3 related protein (ATR)” (Bioorg Med Chem Lett, 2017):

What was measured:
[1] = target: Serine/threonine-protein kinase 33 (Homo sapiens) (UniProt Q9BYT3); assay: Inhibition of recombinant full-length human STK33 at 1 uM using myelin basic protein as substrate after 40 mins in presence of [gamma-33P]ATP by scintillation counting method
[2] = target: Cyclin-dependent kinase-like 1 (Homo sapiens) (UniProt Q00532); assay: Inhibition of recombinant human CDKL1 (1 to 303 residues) at 1 uM using RRRFRPASPLRGPPK as substrate after 120 mins in presence of [gamma-33P]ATP by scintillation counting method
[3] = target: Cyclin-dependent kinase 2/cyclin E1 (Homo sapiens) (UniProt P24864+P24941); assay: Inhibition of recombinant full-length human CDK2/Cyclin E at 1 uM using histone H1 as substrate after 40 mins in presence of [gamma-33P]ATP by scintillation counting method; type: protein-complex assay
[4] = tested on: Epidermal growth factor receptor (Homo sapiens), P00533 [L861Q]; assay: Inhibition of recombinant human EGFR L861Q mutant (696 to end residues) at 1 uM using poly(Glu,Tyr) 4:1 as substrate after 40 mins in presence of [gamma-33P]ATP by scintillation counting method
[5] = target: Serine/threonine-protein kinase NIM1 (Homo sapiens) (UniProt Q8IY84); assay: Inhibition of recombinant full-length human NIM1 at 1 uM using KKKVSRSGLYRSPSMPENLNRPR as substrate after 40 mins in presence of [gamma-33P]ATP by scintillation counting method
[6] = target: Receptor-interacting serine/threonine-protein kinase 2 (Homo sapiens) (UniProt O43353); assay: Inhibition of recombinant human RIPK2 (1 to 299 residues) at 1 uM using myelin basic protein as substrate after 120 mins in presence of [gamma-33P]ATP by scintillation counting method
[7] = target: Discoidin domain-containing receptor 2 (Homo sapiens) (UniProt Q16832); assay: Inhibition of recombinant human DDR2 (467 to end residues) at 1 uM using KKSRGDYMTMQIG as substrate after 40 mins in presence of [gamma-33P]ATP by scintillation counting method
[8] = target: Muscle, skeletal receptor tyrosine-protein kinase (Homo sapiens) (UniProt O15146); assay: Inhibition of recombinant human MUSK (530 to end residues) at 1 uM using myelin basic protein as substrate after 40 mins in presence of [gamma-33P]ATP by scintillation counting method
[9] = target: Mitogen-activated protein kinase kinase kinase kinase 1 (Homo sapiens) (UniProt Q92918); assay: Inhibition of recombinant human HPK1 (1 to 346 residues) at 1 uM using myelin basic protein as substrate after 40 mins in presence of [gamma-33P]ATP by scintillation counting method
[10] = target: Tyrosine-protein kinase Tec (Homo sapiens) (UniProt P42680); assay: Inhibition of recombinant activated human Tec (174 to end residues) at 1 uM using EFPIYDFLPAKKK as substrate after 40 mins in presence of [gamma-33P]ATP by scintillation counting method
[11] = target: Cyclin-dependent kinase 5/CDK5 activator 1 (Homo sapiens) (UniProt Q00535+Q15078); assay: Inhibition of recombinant full-length human CDK5/P25 at 1 uM using histone H1 as substrate after 40 mins in presence of [gamma-33P]ATP by scintillation counting method; type: protein-complex assay
[12] = target: PI3K p110 beta/p85 alpha (Mus musculus) (UniProt P26450+Q8BTI9); assay: Inhibition of recombinant full-length mouse p110b/p85a at 1 uM using phosphatidylinositol 4,5-bisphosphate as substrate after 40 mins in presence of [gamma-33P]ATP by scintillation counting method; type: protein-complex assay
[13] = target: Serine/threonine-protein kinase PRP4 homolog (Homo sapiens) (UniProt Q13523); assay: Inhibition of recombinant human PRP4 (663 to end residues) at 1 uM using casein as substrate after 120 mins in presence of [gamma-33P]ATP by scintillation counting method
[14] = target: Dual specificity protein kinase CLK3 (Homo sapiens) (UniProt P49761); assay: Inhibition of recombinant full-length human CLK3 at 1 uM using ERMRPRKRQGSVRRRV as substrate after 40 mins in presence of [gamma-33P]ATP by scintillation counting method
[15] = tested on: PI3-kinase p110-alpha/p85-alpha (Homo sapiens), P27986+P42336 [H1047R]; assay: Inhibition of recombinant full-length human p110a H1047R mutant/p85a at 1 uM using phosphatidylinositol 4,5-bisphosphate as substrate after 40 mins in presence of [gamma-33P]ATP by scintillation counting method; type: protein-complex assay
[16] = target: Phosphatidylinositol 4-phosphate 5-kinase type-1 gamma (Homo sapiens) (UniProt O60331); assay: Inhibition of recombinant full-length human PIP5K1gamma at 1 uM using phosphatidylinositol 4-phosphate/phosphatidylserine as substrate after 40 mins in presence of [gamma-33P]ATP by scintillation counting method
[17] = target: Tyrosine-protein kinase JAK1 (Homo sapiens) (UniProt P23458); assay: Inhibition of recombinant human JAK1 (866 to end residues) at 1 uM using GEEPLYWSFPAKKK as substrate after 40 mins in presence of [gamma-33P]ATP by scintillation counting method
[18] = target: SRSF protein kinase 1 (Homo sapiens) (UniProt Q96SB4); assay: Inhibition of recombinant human SRPK1 (2 to end residues) at 1 uM using RSRSRSRSRSRSRSR as substrate after 40 mins in presence of [gamma-33P]ATP by scintillation counting method
Homo sapiens = species on record: Homo sapiens; assay: Inhibition of recombinant full-length human p110a/recombinant p65a (1 to 571 residues) at 1 uM using phosphatidylinositol 4,5-bisphosphate as substrate after 40 mins in presence of [gamma-33P]ATP by scintillation counting method
[19] = target: Phosphatidylinositol 4,5-bisphosphate 3-kinase catalytic subunit gamma isoform (Homo sapiens) (UniProt P48736); assay: Inhibition of recombinant full-length human p120g at 1 uM using phosphatidylinositol-4,5-bisphosphate as substrate after 40 mins in presence of [gamma-33P]ATP by scintillation counting method
[20] = target: MAP/microtubule affinity-regulating kinase 3 (Homo sapiens) (UniProt P27448); assay: Inhibition of recombinant full-length human MARK3 at 1 uM using KKKVSRSGLYRSPSMPENLNRPR as substrate after 40 mins in presence of [gamma-33P]ATP by scintillation counting method
[21] = target: BDNF/NT-3 growth factors receptor (Homo sapiens) (UniProt Q16620); assay: Inhibition of recombinant human TrkB (455 to end residues) at 1 uM using poly(Glu,Tyr) 4:1 as substrate after 40 mins in presence of [gamma-33P]ATP by scintillation counting method
[22] = target: Cytoplasmic tyrosine-protein kinase BMX (Homo sapiens) (UniProt P51813); assay: Inhibition of recombinant full-length human BMX at 1 uM using poly(Glu,Tyr) 4:1 as substrate after 40 mins in presence of [gamma-33P]ATP by scintillation counting method
Cytoplasmic tyrosine-protein kinase BMX (Homo sapiens), sequence (P51813 whole entry): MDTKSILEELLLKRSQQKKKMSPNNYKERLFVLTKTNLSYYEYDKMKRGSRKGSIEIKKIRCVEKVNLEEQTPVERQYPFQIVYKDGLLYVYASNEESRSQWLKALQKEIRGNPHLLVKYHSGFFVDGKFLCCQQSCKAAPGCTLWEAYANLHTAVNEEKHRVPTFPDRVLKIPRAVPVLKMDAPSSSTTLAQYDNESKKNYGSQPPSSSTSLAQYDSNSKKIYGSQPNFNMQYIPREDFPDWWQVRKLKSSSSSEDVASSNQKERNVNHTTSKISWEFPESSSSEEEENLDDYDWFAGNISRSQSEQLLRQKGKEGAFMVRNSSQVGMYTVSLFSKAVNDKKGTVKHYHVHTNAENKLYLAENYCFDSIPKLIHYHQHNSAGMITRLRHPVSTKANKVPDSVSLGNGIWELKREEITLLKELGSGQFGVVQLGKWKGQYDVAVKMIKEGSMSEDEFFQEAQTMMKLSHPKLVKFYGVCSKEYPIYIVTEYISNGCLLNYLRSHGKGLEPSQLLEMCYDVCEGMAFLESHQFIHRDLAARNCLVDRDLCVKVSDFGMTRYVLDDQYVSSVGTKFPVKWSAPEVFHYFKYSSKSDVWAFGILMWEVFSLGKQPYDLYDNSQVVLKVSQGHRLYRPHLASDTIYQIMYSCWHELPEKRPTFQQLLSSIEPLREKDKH

Dual specificity protein kinase CLK3 (Homo sapiens), sequence (P49761 whole entry, looked up): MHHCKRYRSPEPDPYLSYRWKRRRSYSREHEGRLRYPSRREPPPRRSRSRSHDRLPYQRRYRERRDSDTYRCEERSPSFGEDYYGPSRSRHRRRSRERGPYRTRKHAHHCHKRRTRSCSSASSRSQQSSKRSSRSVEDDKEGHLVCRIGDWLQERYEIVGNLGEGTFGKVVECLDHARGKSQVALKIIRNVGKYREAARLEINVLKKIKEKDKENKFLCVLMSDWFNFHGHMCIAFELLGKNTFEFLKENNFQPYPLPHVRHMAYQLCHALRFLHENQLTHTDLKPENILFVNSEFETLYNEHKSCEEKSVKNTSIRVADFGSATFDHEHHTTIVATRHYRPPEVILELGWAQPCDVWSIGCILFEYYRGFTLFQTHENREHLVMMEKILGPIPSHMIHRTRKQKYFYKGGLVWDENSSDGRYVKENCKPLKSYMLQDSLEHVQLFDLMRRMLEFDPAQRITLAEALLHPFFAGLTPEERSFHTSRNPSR
Phosphatidylinositol 4,5-bisphosphate 3-kinase catalytic subunit gamma isoform (Homo sapiens), sequence (P48736 whole entry, looked up, canonical isoform): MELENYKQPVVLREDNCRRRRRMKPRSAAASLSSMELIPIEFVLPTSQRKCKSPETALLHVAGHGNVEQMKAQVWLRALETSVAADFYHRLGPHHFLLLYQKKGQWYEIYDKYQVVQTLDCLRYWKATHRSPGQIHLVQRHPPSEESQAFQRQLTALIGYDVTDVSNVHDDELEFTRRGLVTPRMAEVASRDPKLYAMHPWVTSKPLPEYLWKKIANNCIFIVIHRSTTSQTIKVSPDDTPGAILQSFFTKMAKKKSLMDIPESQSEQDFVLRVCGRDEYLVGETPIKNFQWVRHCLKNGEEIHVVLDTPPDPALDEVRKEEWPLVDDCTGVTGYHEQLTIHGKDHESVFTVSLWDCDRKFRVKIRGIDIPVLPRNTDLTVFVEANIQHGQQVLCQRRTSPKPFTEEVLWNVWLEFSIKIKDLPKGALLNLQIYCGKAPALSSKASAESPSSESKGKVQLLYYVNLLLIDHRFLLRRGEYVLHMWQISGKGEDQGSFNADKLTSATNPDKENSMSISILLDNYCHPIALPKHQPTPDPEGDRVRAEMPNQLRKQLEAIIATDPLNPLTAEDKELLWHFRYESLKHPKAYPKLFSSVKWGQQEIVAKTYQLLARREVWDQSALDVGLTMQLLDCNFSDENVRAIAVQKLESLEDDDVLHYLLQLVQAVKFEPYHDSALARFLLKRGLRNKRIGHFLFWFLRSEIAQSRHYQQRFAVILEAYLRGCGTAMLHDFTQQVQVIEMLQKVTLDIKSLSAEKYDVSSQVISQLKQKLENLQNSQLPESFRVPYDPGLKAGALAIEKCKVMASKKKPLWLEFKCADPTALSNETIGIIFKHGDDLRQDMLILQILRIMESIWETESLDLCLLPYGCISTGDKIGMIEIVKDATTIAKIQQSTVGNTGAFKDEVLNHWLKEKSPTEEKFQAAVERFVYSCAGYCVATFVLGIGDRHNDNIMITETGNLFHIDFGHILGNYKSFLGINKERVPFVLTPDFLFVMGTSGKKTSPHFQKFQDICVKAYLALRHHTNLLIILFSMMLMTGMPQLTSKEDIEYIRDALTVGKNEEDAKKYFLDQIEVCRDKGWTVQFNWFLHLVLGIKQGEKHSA
Serine/threonine-protein kinase PRP4 homolog (Homo sapiens), sequence (Q13523 whole entry): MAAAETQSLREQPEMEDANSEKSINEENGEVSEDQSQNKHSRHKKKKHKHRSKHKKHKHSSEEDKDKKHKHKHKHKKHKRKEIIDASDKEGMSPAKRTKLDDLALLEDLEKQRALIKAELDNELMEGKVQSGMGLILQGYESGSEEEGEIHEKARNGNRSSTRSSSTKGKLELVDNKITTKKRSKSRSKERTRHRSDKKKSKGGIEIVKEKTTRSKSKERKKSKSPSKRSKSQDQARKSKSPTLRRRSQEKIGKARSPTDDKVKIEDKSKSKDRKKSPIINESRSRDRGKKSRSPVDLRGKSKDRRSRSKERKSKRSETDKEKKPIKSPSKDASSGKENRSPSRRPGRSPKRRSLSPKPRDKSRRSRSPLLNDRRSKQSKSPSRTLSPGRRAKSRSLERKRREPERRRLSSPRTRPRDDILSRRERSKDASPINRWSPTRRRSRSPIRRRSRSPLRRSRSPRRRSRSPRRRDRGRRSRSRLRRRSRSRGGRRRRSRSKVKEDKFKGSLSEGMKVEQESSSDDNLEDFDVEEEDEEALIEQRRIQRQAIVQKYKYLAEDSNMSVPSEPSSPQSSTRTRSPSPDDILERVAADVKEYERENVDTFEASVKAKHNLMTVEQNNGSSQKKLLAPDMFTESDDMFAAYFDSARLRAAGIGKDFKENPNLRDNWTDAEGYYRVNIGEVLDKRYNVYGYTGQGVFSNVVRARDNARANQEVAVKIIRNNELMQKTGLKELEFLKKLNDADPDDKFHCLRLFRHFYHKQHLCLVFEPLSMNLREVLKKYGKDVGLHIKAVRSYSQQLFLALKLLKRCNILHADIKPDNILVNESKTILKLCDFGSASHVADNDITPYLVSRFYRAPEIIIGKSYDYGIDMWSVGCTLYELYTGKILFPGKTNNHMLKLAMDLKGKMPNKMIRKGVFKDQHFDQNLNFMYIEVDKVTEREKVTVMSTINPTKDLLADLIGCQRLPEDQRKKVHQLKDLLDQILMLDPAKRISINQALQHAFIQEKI
Muscle, skeletal receptor tyrosine-protein kinase (Homo sapiens), sequence (O15146 whole entry, the tested form may be a part): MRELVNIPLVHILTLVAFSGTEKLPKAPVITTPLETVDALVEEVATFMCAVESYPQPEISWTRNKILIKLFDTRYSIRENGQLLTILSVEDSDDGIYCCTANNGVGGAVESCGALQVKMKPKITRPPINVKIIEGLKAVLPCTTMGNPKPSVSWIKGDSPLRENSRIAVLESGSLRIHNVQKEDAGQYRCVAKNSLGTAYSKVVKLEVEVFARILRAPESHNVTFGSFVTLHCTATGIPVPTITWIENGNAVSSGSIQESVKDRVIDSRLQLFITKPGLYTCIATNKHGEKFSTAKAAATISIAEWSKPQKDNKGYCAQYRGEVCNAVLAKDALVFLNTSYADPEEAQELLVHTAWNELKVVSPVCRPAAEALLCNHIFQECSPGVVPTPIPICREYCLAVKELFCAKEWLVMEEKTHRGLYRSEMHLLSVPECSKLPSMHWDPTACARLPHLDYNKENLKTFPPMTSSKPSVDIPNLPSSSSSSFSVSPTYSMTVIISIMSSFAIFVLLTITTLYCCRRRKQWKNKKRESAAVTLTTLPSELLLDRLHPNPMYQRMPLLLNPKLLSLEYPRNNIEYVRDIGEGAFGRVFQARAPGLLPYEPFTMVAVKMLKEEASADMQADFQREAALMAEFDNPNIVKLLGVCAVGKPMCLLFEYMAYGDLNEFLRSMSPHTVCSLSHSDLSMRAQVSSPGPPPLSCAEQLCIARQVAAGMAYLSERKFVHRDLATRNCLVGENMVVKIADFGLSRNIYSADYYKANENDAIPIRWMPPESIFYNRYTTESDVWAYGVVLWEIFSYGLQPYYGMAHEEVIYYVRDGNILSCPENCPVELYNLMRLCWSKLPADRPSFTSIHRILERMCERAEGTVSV
Cyclin-dependent kinase 5/CDK5 activator 1 (Homo sapiens), sequence (Q00535 whole entry): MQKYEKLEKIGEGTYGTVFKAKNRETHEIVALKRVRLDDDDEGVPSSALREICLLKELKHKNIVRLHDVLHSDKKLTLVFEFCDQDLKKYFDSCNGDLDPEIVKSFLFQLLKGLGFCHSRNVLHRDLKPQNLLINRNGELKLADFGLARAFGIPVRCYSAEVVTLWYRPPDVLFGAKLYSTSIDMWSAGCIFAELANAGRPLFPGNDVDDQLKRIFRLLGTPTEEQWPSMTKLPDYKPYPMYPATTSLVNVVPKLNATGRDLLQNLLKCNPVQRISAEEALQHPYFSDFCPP
Cyclin-dependent kinase 5/CDK5 activator 1 (Homo sapiens), sequence (Q15078 99-307 partner limits assumed): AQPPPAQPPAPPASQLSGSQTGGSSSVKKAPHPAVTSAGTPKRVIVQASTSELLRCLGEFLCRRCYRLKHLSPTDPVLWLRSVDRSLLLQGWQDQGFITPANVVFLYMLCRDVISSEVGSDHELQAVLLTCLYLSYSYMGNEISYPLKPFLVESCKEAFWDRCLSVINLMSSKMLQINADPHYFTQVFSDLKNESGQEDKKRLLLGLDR
Cyclin-dependent kinase-like 1 (Homo sapiens), sequence (Q00532 whole entry, the tested form may be a part): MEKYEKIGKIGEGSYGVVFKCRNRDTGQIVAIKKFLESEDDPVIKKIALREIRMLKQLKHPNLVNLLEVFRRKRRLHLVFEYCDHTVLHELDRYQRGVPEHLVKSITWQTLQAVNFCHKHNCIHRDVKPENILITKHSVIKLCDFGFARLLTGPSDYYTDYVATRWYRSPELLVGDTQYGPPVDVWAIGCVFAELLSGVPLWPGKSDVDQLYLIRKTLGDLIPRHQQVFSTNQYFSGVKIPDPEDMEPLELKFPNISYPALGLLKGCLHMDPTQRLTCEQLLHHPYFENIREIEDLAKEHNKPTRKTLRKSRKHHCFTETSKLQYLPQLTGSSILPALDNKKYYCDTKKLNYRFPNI

In the case of `CS(=O)(=O)c1ccc(-n2nc(-c3cnc4[nH]ccc4c3)c3c(N)ncnc32)cc1`, the inhibition [1] is reported as 4%, the inhibition [2] is reported as 3% and the inhibition [3] is reported as 3%. The inhibition [4] was 31%, the inhibition [5] was -5% and the inhibition [6] was 70%. It also gave an inhibition [7] of 4%, an inhibition [8] of -2% and an inhibition [9] of 2%. It also gave an inhibition [10] of 55%, an inhibition [11] of -1% and an inhibition [12] of 0%. It also gave an inhibition [13] of 4%, an inhibition [14] of -1% and an inhibition [15] of 16%. The inhibition [16] was 3%, the inhibition [17] was 36% and the inhibition [18] was 1%. The inhibition (Homo sapiens) was 8%, the inhibition [19] was 10% and the inhibition [20] was 4%. The inhibition [21] was 4% and the inhibition [22] was 47%.
